Measured values from ChEMBL document CHEMBL4387743, “Design, synthesis and structure activity relationships of indazole and indole derivatives as potent glucagon receptor antagonists” (Bioorg Med Chem Lett, 2019).
Each block holds one compound with its values, some of them ahead of it.

Tests used:
Glucagon receptor = Glucagon receptor (Homo sapiens, UniProt P47871); experiment: Antagonist activity at full length human recombinant GCGR transfected in HEK293 cells assessed as inhibition of glucagon-stimulated cAMP by LANCE assay; type: functional, cell-based
[1] = Clearance in C57 black mouse at 5 mg/kg, iv; type: ADME, organism-based; details: in vivo
[2] = Elimination half life in C57 black mouse at 5 mg/kg, iv; type: ADME, organism-based; details: in vivo, read-out: beta t1/2 (converted)
[3] = Cmax in C57 black mouse at 20 mg/kg, po; type: ADME, organism-based; set-up: dose 20 mg/kg, route oral; details: in vivo
[4] = Oral bioavailability in C57 black mouse at 20 mg/kg; type: ADME, organism-based; details: in vivo
[5] = AUClast in C57 black mouse at 20 mg/kg, po; type: ADME, organism-based; set-up: dose 20 mg/kg, time 0 - last, route oral; details: in vivo
[6] = Volume of distribution at steady state in C57 black mouse at 5 mg/kg, iv; type: ADME, organism-based; details: in vivo, read-out: Vdss
[7] = Elimination half life in C57 black mouse at 20 mg/kg, po; type: ADME, organism-based; details: in vivo, read-out: beta t1/2 (converted)
[8] = Clearance in Sprague Dawley rat at 2 mg/kg, iv; type: ADME, organism-based; details: in vivo
[9] = Cmax in Sprague Dawley rat at 10 mg/kg, po; type: ADME, organism-based; set-up: dose 10 mg/kg, route oral; details: in vivo
[10] = Volume of distribution at steady state in Sprague Dawley rat at 2 mg/kg, iv; type: ADME, organism-based; details: in vivo, read-out: Vdss
[11] = Elimination half life in Sprague Dawley rat at 2 mg/kg, iv; type: ADME, organism-based; details: in vivo, read-out: beta t1/2 (converted)
[12] = Elimination half life in Sprague Dawley rat at 10 mg/kg, po; type: ADME, organism-based; details: in vivo, read-out: beta t1/2 (converted)
[13] = Oral bioavailability in Sprague Dawley rat at 10 mg/kg; type: ADME, organism-based; details: in vivo
[14] = AUClast in Sprague Dawley rat at 10 mg/kg, po; type: ADME, organism-based; set-up: dose 10 mg/kg, route oral, time 0 - last; details: in vivo

Glucagon receptor, sequence (P47871 whole entry): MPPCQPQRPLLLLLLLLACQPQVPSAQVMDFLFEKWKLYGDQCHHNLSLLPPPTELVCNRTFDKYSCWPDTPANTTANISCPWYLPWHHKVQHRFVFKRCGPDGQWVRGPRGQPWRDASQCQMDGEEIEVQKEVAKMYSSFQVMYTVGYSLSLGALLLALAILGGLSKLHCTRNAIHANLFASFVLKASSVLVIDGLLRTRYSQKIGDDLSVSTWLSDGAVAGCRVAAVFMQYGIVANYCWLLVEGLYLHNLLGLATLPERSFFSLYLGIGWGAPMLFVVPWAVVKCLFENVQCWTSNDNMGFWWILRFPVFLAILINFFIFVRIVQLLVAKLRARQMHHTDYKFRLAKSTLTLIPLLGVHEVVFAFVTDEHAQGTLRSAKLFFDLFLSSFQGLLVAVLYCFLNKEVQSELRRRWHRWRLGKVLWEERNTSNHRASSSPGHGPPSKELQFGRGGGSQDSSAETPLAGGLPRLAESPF

Ki (Glucagon receptor): 1250 nM
SMILES: CC(C)CC(c1ccc(C(=O)NCCC(=O)O)cc1)n1ncc2cc(-c3ccc(N4CCN(C)CC4)cc3)ccc21 (racemic)

Ki (Glucagon receptor): 125 nM
SMILES: CC(C)CC(c1ccc(C(=O)NCCC(=O)O)cc1)n1ncc2cc(-c3ccc(C(C)(C)C)cc3)ccc21 (racemic)

Ki (Glucagon receptor): 3000 nM
SMILES: CC(C)CC(c1ccc(C(=O)NCCC(=O)O)cc1)n1ncc2cc(-c3ccc(N4CCOCC4)cc3)ccc21 (racemic)

Ki (Glucagon receptor): 260 nM
SMILES: CC(C)CC(c1ccc(C(=O)NCCC(=O)O)cc1)n1ncc2cc(-c3ccc(C(F)(F)F)cc3)ccc21 (racemic)

Ki (Glucagon receptor): 285 to 650 nM
SMILES: CC(C)CC(c1ccc(C(=O)NCCC(=O)O)cc1)n1ncc2cc(-c3ccc(OC(F)(F)F)cc3)ccc21 (racemic)

Ki (Glucagon receptor): 1650 nM
SMILES: CC(C)CC(c1ccc(C(=O)NCCC(=O)O)cc1)n1ncc2cc(-c3cc(Cl)cc(Cl)c3)ccc21 (racemic)

The remaining lines, values behind:

SMILES: Cc1cc(C(F)(F)F)ccc1-c1ccc2nn(C(CC(C)C)c3ccc(C(=O)NCCC(=O)O)cc3)cc2c1Cl (racemic)
clearance [1]: 1.89 mL/min/kg | half-life [2]: 6.6 h | Ki (Glucagon receptor): 19 nM | Cmax [3]: 18.5 µM | bioavailability [4]: 97.7% | AUC(0-t) [5]: 290 µM·h | Vd [6]: 0.9 L/kg

SMILES: Cc1c(-c2ccc(C(F)(F)F)cc2Cl)ccc2nn(C(CC(C)C)c3ccc(C(=O)NCCC(=O)O)cc3)cc12 (racemic)
Ki (Glucagon receptor): 29 nM

SMILES: Cc1cc(C(F)(F)F)ccc1-c1ccc2c(ccn2C(CC(C)C)c2ccc(C(=O)NCCC(=O)O)cc2)c1 (racemic)
Ki (Glucagon receptor): 85 nM

SMILES: Cc1cc(-c2ccc(C(C)(C)C)cc2)cc2cn(C(CC(C)C)c3ccc(C(=O)NCCC(=O)O)cc3)nc12 (racemic)
Ki (Glucagon receptor): 1340 nM

SMILES: Cc1cc(C(F)(F)F)ccc1-c1cc2cnn(C(CC(C)C)c3ccc(C(=O)NCCC(=O)O)nc3)c2cc1C (racemic)
clearance [1]: 4.83 mL/min/kg | half-life [2]: 5 h | Cmax [3]: 11.1 µM | bioavailability [4]: 94.7% | half-life [7]: 4.8 h | AUC(0-t) [5]: 111 µM·h | Vd [6]: 1.85 L/kg

SMILES: CC(C)CC(c1ccc(C(=O)NCCC(=O)O)cc1)n1ccc2cc(-c3ccc(C(C)(C)C)cc3)ccc21 (racemic)
Ki (Glucagon receptor): 110 nM

SMILES: Cc1cc(-c2ccc(C(C)(C)C)cc2)cc2ccn(C(CC(C)C)c3ccc(C(=O)NCCC(=O)O)nc3)c12 (racemic)
Ki (Glucagon receptor): > 2600 nM

SMILES: CC(C)CC(c1ccc(C(=O)NCCC(=O)O)cc1)n1ccc2cc(-c3ccc(C(F)(F)F)cc3)ccc21 (racemic)
clearance [1]: 3.77 mL/min/kg | half-life [2]: 3.7 h | clearance [8]: 12.2 mL/min/kg | Cmax [9]: 1.4 µM | Ki (Glucagon receptor): 115 nM | Vd [10]: 3.65 L/kg | half-life [11]: 4.6 h | Cmax [3]: 8.1 µM | bioavailability [4]: 68.7% | half-life [12]: 5.2 h | half-life [7]: 3.9 h | AUC(0-t) [5]: 116 µM·h | bioavailability [13]: 51.7% | AUC(0-t) [14]: 14.3 µM·h | Vd [6]: 1.05 L/kg

SMILES: Cc1cc(C(F)(F)F)ccc1-c1cc(F)c2c(ccn2C(CC(C)C)c2ccc(C(=O)NCCC(=O)O)cc2)c1C (racemic)
Ki (Glucagon receptor): 700 nM
